This note sets out measurements from US12616760B2, “Synthetic cyclic peptide mimetics” (priority 2020, dated 2026).

Square brackets hold non-standard residues; d marks the D form. Peptide text beside a SMILES is read from it. Nle = CCCC[C@H](N)C(=O)O; azaGly = NNC(=O)O

In data set [1] the test system is CL2006 C. elegans strain. The arrangement: species or system Caenorhabditis (C.) elegans. The settings on record: in vivo. An excerpt:
Compound 3 was used in two in vivo transgenic Caenorhabditis (C.) elegans models expressing human Aβ42. The CL2006 C. elegans strain produces constitutively a body-wall muscle-specific Aβ42, the aggregation of which causes age-dependent paralysis, motility dysfunction and consequently short lifespan. The CL2355 strain expresses a temperature-inducible pan-neuronal Aβ42, accumulation of which leads to deficits in chemotaxis, associative learning and thrashing in liquid. The CL2006 mutant and control CL802 wild type worms had respective lifespans of 13.6 and 15.6 days (P<0.005, FIG. 3A).

For data set [2], the target named is T1, Aβ40 (Homo sapiens, UniProt P05067).
T1 construct: The extent of Aβ40 aggregation in the presence of increasing concentrations of azacyclopeptides
In words: Thioflavin T (ThT) fluorescence assay of Aβ40 aggregation. It is filed as biochemical. The settings on record: ThT, 10 μM soluble Aβ40. On the procedure: Amyloid generation can be identified and quantified using the thioflavin T (ThT) fluorescence dye assay. […] Agents that bind and inhibit aggregation of Aβ diminish ThT fluorescence relative to untreated Aβ. The extent of Aβ40 aggregation in the presence of increasing concentrations of azacyclopeptides and azasulfurylcyclopeptide 55 was evaluated by the ThT assay. Fluorescence of Aβ40 that was aged for 48 h was used as control, defined as 0% anti-amyloidogenic activity, and compared with fluorescence in the presence of cyclic peptide mimics at increasing concentrations to measure anti-amyloidogenic activity.

T1 sequence (P05067 672-711 limits assumed): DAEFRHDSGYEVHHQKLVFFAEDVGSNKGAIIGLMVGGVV

As to `CCCC[C@@H]1NC(=O)[C@@H](CC(C)C)NC(=O)[C@H](CCCCN)NC(=O)NNC(=O)[C@H](Cc2c[nH]cn2)NC(=O)[C@@H](Cc2c[nH]c3ccccc23)NC1=O` [Compound 3, c(D-Leu-L-Nle-D-Trp-L-His-Gly*-L-Lys)] (cyclo(K[dL][Nle][dW]H[azaGly])), the toxicity and longevity result in data set [1] was “no toxicity and no influence on wild type CL802 worm longevity”. Further, the entries for the “Inhibition of amyloidogenic activity(%)” value in data set [2] (Aβ:peptide 1:1), in data set [2] (Aβ:peptide 1:5) and in data set [2] (Aβ:peptide 1:10) were 83.7%, 81.3% and 83.7%, respectively.
